# Source: US20120077744A1, “STEROID-SPARING METHODS OF TREATING BRAIN EDEMA” (Neutron Limited, priority 2007, published 2012)
# Legend:
# [1] = tested on: patients with peritumoral brain edema; settings: cited from earlier work
# [2] = Open-label extension study: serial serum cortisol levels; format: in vivo, human; settings: for AM serum cortisol, one patient: reference range 5-25 μg/dL
# Procedure: Serial serum cortisol levels were obtained for 16 patients, and were normal or low in 15 (94%) of the 16 patients. In one patient, AM serum cortisol (reference range 5-25 μg/dL) was low on a dexamethasone dose of 2.5 mg/d, moderately elevated (39 μg/dL) after discontinuation of dexamethasone for 4 weeks, then normalized (25 μg/dL) after 16 weeks off dexamethasone, and again low (0.4 μg/dL) after 8 weeks on dexamethasone at 7.0-8.0 mg/d.
# [3] = tested on: patients with primary or secondary brain tumors (peritumoral brain edema); settings: interim report (SNO 2006); 20 subjects on corticorelin acetate for at least 4 weeks; cited from earlier work
# [4] = tested on: patients with primary or secondary brain tumors (peritumoral brain edema); assay: Open-label extension study: adverse events and safety
# Procedure: Eligible patients with primary or secondary brain tumors, who had previously participated in one of two randomized, double-blind Phase III trials, were then enrolled in an open-label extension study. As shown in FIG. 1 patients that participated in the Phase III studies that received XERECEPT (corticorelin acetate) 1 mg twice daily and dexamethasone or placebo and dexamethasone or dexamethasone alone were enrolled in the open label extension study. One of the goals of the open label study was to study the maximum dexamethasone reduction in each patient.
# In the open-labeled extension study, patients returned at 4-week intervals and completed assessments that included adverse events, dexamethasone dose, and steroid side-effects. […] Net cumulative change in dexamethasone dose (NCD) for each patient was determined by the change in dexamethasone dose from baseline for each visit. The net sum of these changes accounted for duration, direction, and amount of dexamethasone dose change.
# [5] = tested on: patients with primary or secondary brain tumors (peritumoral brain edema); assay: Open-label extension study: dexamethasone dose reduction (net cumulative change in dexamethasone dose, NCD); format: in vivo, human
# Text: Eligible patients with primary or secondary brain tumors, who had previously participated in one of two randomized, double-blind Phase III trials, were then enrolled in an open-label extension study. […] One of the goals of the open label study was to study the maximum dexamethasone reduction in each patient.
# [6] = tested on: patients with primary or secondary brain tumors (peritumoral brain edema); assay: Open-label extension study: improvement of steroid-related conditions; format: in vivo, human
# Procedure: In these 8 patients, the mean NCD was −9.8 mg/d; the median NCD was −6.5 mg/d (0 to −36 mg/d).
# Mean baseline dexamethasone dose was similar in patients with reduced NCD (6.2 mg) and those with increased NCD (6.3 mg). Improvement or resolution of baseline steroid-related conditions correlated with NCD. Such improvement was observed only in patients whose NCD was reduced or those who took no dexamethasone from baseline to date extraction, as shown in FIG. 3. FIG. 3 is flow chart depicting the net cumulative change in dexamethasone dose and steroid-related adverse events. In contrast, worsening or new onset of steroid-related AEs was confined to patients whose NCD was increased, with one exception—a patient who initiated dexamethasone ≦2 weeks prior to baseline. Improvement was most frequently observed in Cushingoid appearance (5 AEs) myopathy (4 AEs), and insomnia (2 AEs) followed by weight gain, bloating, pedal edema, polyuria, skin striae, and Herpes zoster rash (1 AE each). Median time to initial improvement of steroid-related conditions was 12 weeks (1 to 36 weeks).
# [7] = tested on: vascular leakage of plasma constituents; settings: systemic administration; response to injury or inflammatory mediators; cited from earlier work
# [8] = tested on: patients with primary or secondary brain tumors (peritumoral brain edema); settings: interim report (SNO 2006); 8 of 18 subjects with such conditions at baseline; cited from earlier work
# RG2 glioma tumor cells = settings: rats, cited from earlier work
# [9] = tested on: intracerebral W256 mammary carcinomas; settings: rats, even at the study's lowest dose of corticorelin acetate; cited from earlier work
structure (smiles),measurement,setting,value
CC[C@H](C)[C@H](NC(=O)[C@@H](NC(=O)[C@H](CCC(=O)O)NC(=O)[C@H](CCSC)NC(=O)[C@H](CC(C)C)NC(=O)[C@H](CCCCN)NC(=O)[C@H](CCCNC(=N)N)NC(=O)[C@H](CC(N)=O)NC(=O)[C@H](CO)NC(=O)[C@H](Cc1c[nH]cn1)NC(=O)[C@H](C)NC(=O)[C@H](CCC(N)=O)NC(=O)[C@H](CCC(N)=O)NC(=O)[C@H](C)NC(=O)[C@H](CC(C)C)NC(=O)[C@H](CCC(N)=O)NC(=O)[C@H](CCC(=O)O)NC(=O)[C@H](C)NC(=O)[C@H](CCCNC(=N)N)NC(=O)[C@H](C)NC(=O)[C@H](CCSC)NC(=O)[C@H](CCC(=O)O)NC(=O)[C@H](CC(C)C)NC(=O)[C@@H](NC(=O)[C@H](CCC(=O)O)NC(=O)[C@H](CCCNC(=N)N)NC(=O)[C@H](CC(C)C)NC(=O)[C@H](CC(C)C)NC(=O)[C@H](Cc1c[nH]cn1)NC(=O)[C@H](Cc1ccccc1)NC(=O)[C@@H](NC(=O)[C@H](CC(C)C)NC(=O)[C@H](CC(=O)O)NC(=O)[C@H](CC(C)C)NC(=O)[C@H](CO)NC(=O)[C@@H](NC(=O)[C@@H]1CCCN1C(=O)[C@@H]1CCCN1C(=O)[C@H](CCC(=O)O)NC(=O)[C@H](CCC(=O)O)NC(=O)[C@@H](N)CO)[C@@H](C)CC)[C@@H](C)O)C(C)C)[C@@H](C)CC)C(N)=O [corticorelin acetate],Side-effects of intravenous administration,"[1]; human, in vivo, iv","some side-effects including headache, hypotension, facial flushing, diarrhea, shortness of breath, nausea and lethargy"
same,Tolerability in humans,"[1]; human, in vivo, iv",well-tolerated
same,Neurological symptoms or physical findings,[1]; intravenous bolus and continuous infusions,showed improvement in neurological symptoms or physical findings
same,Patients with normal or low serial serum cortisol levels,[2]; 15 of the 16 patients,94%
same,"AM serum cortisol, one patient","[2]; after 8 weeks on dexamethasone at 7.0-8.0 mg/d, low",0.4 µg/dL
same,"AM serum cortisol, one patient","[2]; after 16 weeks off dexamethasone, normalized",25 µg/dL
same,"AM serum cortisol, one patient","[2]; after discontinuation of dexamethasone for 4 weeks, moderately elevated",39 µg/dL
same,Induction of hypercortisolism,[2]; dosing up to 48 weeks,did not induce hypercortisolism
same,Subjects who reduced their dexamethasone dosage during the study,[3],11 subjects
same,Subjects who took no concomitant dexamethasone,[3],2 subjects
same,Deaths: relation to study drug,[4]; four patients died between 1-40 days after the last dose,all because of conditions not related to study drug
same,"All adverse events, Mild",[4]; in vivo,3 (15.0) n (%)
same,"All adverse events, Moderate",[4]; in vivo,3 (15.0) n (%)
same,"All adverse events, Severe",[4]; in vivo,1 (5.0) n (%)
same,"All adverse events, all severities (last column, no head)",[4]; in vivo,7 (35.0) n (%)
same,"Eyelid edema, Mild",[4]; in vivo,1 (5.0) n (%)
same,"Eyelid edema, all severities (last column, no head)",[4]; in vivo,1 (5.0) n (%)
same,"Flushing, Mild",[4]; in vivo,3 (15.0) n (%)
same,"Flushing, Moderate",[4]; in vivo,2 (10.0) n (%)
same,"Flushing, all severities (last column, no head)",[4]; in vivo,5 (25.0) n (%)
same,"Headache, Severe",[4]; in vivo,1 (5.0) n (%)
same,"Headache, all severities (last column, no head)",[4]; in vivo,1 (5.0) n (%)
same,"Injection site erythema, Mild",[4]; in vivo,4 (20.0) n (%)
same,"Injection site erythema, Moderate",[4]; in vivo,1 (5.0) n (%)
same,"Injection site erythema, all severities (last column, no head)",[4]; in vivo,5 (25.0) n (%)
same,"Injection site reaction, Mild",[4]; in vivo,2 (10.0) n (%)
same,"Injection site reaction, Moderate",[4]; in vivo,1 (5.0) n (%)
same,"Injection site reaction, all severities (last column, no head)",[4]; in vivo,3 (15.0) n (%)
same,"Nausea, Moderate",[4]; in vivo,1 (5.0) n (%)
same,"Nausea, all severities (last column, no head)",[4]; in vivo,1 (5.0) n (%)
same,Number of SAEs,[4]; in vivo,12 SAEs
same,"Photophobia, Moderate",[4]; in vivo,1 (5.0) n (%)
same,"Photophobia, all severities (last column, no head)",[4]; in vivo,1 (5.0) n (%)
same,SAEs attributed to corticorelin acetate,[4]; in vivo,none of which were attributed to corticorelin acetate
same,Safety and tolerability of long-term treatment,[4]; in vivo,safe and well-tolerated
same,Typically refractory patients who successfully reduced dexamethasone,[5]; 5 of the 8 patients 55 years of age,62.5%
same,Typically refractory patients who successfully reduced dexamethasone,[5]; 7 of the 10 patients with recurrent brain tumor,70%
same,Patients with increased NCD,[5]; 7 of the 20 patients,35%
same,Mean NCD,[5]; 7 patients whose NCD was increased,+10.7 mg/d
same,Median NCD,"[5]; 7 patients whose NCD was increased, range +2.0 mg/d to +46.0 mg/d",+5.0 mg/d
same,Median maximum percent change from baseline in dexamethasone dose,"[5]; 7 patients with increased NCD, range +50 to +200%",+100%
same,Typically refractory patients who successfully reduced dexamethasone,[5]; 11 of the 16 patients in whom prior dexamethasone reductions had been unsuccessful,69%
same,Patients with reduced NCD,[5]; 11 of the 20 patients,55%
same,Mean NCD,[5]; 11 patients whose NCD was reduced,-10.7 mg/day
same,Median NCD,"[5]; 11 patients whose NCD was reduced, range −0.5 to −36 mg/d",-3.0 mg/day
same,Median maximum percent change from baseline in dexamethasone dose,"[5]; 11 patients with reduced NCD, range −11 to −100%",−87%
same,Patients discontinuing dexamethasone altogether,[5]; of the 11 patients with reduced NCD,5 patients
same,Exposure to dexamethasone and steroid-related side-effects,[5]; patients with peritumoral brain edema,associated with reduced exposure to dexamethasone and improvement in steroid-related side-effects
same,Patients who took 0.0 mg/d dexamethasone from baseline to ≧24 weeks,[5]; two of 20 patients,10%
same,Patients with improvement or resolution of steroid-related conditions,"[6]; 8 of the 18 patients with such conditions at baseline, 17 conditions",45%
same,Mean NCD,[6]; 8 patients with improvement or resolution of steroid-related conditions,-9.8 mg/day
same,Median NCD,"[6]; 8 patients with improvement or resolution of steroid-related conditions, range 0 to −36 mg/d",-6.5 mg/day
same,Median time to initial improvement of steroid-related conditions,[6]; range 1 to 36 weeks,12 weeks
same,Improvement observed in Cushingoid appearance,[6]; steroid-related conditions,5 AEs
same,Improvement observed in insomnia,[6]; steroid-related conditions,2 AEs
same,Improvement observed in myopathy,[6]; steroid-related conditions,4 AEs
same,"Improvement observed in weight gain, bloating, pedal edema, polyuria, skin striae, and Herpes zoster rash",[6]; steroid-related conditions,1 AE each
same,Effect on vascular leakage and tissue swelling,[7],inhibit vascular leakage of plasma constituents and associated tissue swelling
same,Subjects with improvement or resolution of steroid related conditions,[8],45%
same,Survival versus dexamethasone alone,RG2 glioma tumor cells; administered chronically,significantly prolonged survival
same,Effect on tumoral and peritumoral edema,RG2 glioma tumor cells; intravenous infusion,reduce tumoral and peritumoral edema
same,Effect on the anti-edematous effect of dexamethasone,[9],enhance substantially the anti-edematous effect of dexamethasone
